Activity calls are given as the source filed them. The rule behind the calls is not given here.
Tests used:
[1] = system: Artemia salina; assay: Toxicity in Artemia salina at 20 ug/mL; assay type: organism-based; settings: in vivo
[2] = system: Cladosporium herbarum; assay: Antifungal activity against Cladosporium herbarum DSM 63422 at 20 ug/disk after 24 hrs by agar plate diffusion assay; assay type: functional
[3] = system: HeLa; assay: Cytotoxicity against human HeLa cells at 10 ug/mL by MTT assay relative to control; assay type: functional
[4] = system: L5178Y; assay: Cytotoxicity against mouse L5178Y cells at 10 ug/mL by MTT assay relative to control; assay type: functional
[5] = system: PC-12; assay: Cytotoxicity against rat PC12 cells by MTT assay; assay type: functional, cell-based

| Structure (SMILES) | Activity [1] [%] | Activity [2] | Activity [3] [%] | Activity [4] [%] | Activity [5] | zone of inhibition at 20 µg/disc ([2]; DSM 63422, 24 h, read-out: IZ) [mm] |
| --- | --- | --- | --- | --- | --- | --- |
| COc1ccc(-c2c3cc(O)c(OC)cc3cc3c2[nH]c(=N)n3C)cc1 [KEALIININE A] | 50 | inactive |  |  |  |  |
| COc1ccc(Cc2[nH]c(=N)n(C)c2Cc2cc(OC)c(O)c(OC)c2)cc1 [NAAMINE G] | 10 |  | 29 | 46 | inactive | 20 |
